Test results: patent publication US8173682B2, “Substituted pyridones as inhibitors of poly(ADP-ribose) polymerase (PARP)” (Aventis Pharmaceuticals Inc., priority 2004, dated 2012)
Structures can show the parent of a compound that is named as a salt.

Molecular target: recombinantly expressed human PARP-1 enzyme (Homo sapiens, UniProt P09874)
Test: PARP enzyme assay, Method B (tritium-labeled NAD incorporation)
Type: biochemical
Conditions: Method B; 200 μM NAD, room temperature 1 hour, pH 8.0; read-out: IC50 (μM)/Method B
Description: Method B: PARP Enzyme Assay:
The IC50 is determined in this method by incubating the substances to be tested with the DNA-activated, recombinantly expressed and purified PARP-1 enzyme. Specifically, various concentrations of the test substance are incubated in 50 μL of reaction solution, which contains 50 mM Tris, 5 mM MgCl2, 1 mM DTT, 200 μM NAD, 0.1 m Ci/mL tritium-labeled NAD, 0.1 mg/mL DNA, 0.1 mg/mL histones, 2 μg/mL recombinantly expressed human PARP-1 enzyme, pH=8.0, at room temperature for 1 hour. The reaction is stopped by adding 150 μL of 20% trichloroacetic acid, and the radiolabeled protein constituents are precipitated. After incubation on ice for 10 minutes, the labeled, insoluble constituents are separated off through a glass fiber filter and, after washing with 20% trichloroacetic acid three times, the radioactivity incorporated by the PARP-1 enzyme is measured by radioluminescence. Consideration of the incorporation rates determined in this way as a function of the concentration of the test substance results in IC50 as the concentration of the test substance which reduces the incorporation rate to half the maximum value attainable (incubation without inhibitor).
The IC50 (fifty percent inhibitory concentration of the test substance in a solution—expressed at micromolar (μM) concentration) measured in accordance with these procedures for the compounds of this invention are summarized in Table 1.

Chain of recombinantly expressed human PARP-1 enzyme (P09874 whole entry): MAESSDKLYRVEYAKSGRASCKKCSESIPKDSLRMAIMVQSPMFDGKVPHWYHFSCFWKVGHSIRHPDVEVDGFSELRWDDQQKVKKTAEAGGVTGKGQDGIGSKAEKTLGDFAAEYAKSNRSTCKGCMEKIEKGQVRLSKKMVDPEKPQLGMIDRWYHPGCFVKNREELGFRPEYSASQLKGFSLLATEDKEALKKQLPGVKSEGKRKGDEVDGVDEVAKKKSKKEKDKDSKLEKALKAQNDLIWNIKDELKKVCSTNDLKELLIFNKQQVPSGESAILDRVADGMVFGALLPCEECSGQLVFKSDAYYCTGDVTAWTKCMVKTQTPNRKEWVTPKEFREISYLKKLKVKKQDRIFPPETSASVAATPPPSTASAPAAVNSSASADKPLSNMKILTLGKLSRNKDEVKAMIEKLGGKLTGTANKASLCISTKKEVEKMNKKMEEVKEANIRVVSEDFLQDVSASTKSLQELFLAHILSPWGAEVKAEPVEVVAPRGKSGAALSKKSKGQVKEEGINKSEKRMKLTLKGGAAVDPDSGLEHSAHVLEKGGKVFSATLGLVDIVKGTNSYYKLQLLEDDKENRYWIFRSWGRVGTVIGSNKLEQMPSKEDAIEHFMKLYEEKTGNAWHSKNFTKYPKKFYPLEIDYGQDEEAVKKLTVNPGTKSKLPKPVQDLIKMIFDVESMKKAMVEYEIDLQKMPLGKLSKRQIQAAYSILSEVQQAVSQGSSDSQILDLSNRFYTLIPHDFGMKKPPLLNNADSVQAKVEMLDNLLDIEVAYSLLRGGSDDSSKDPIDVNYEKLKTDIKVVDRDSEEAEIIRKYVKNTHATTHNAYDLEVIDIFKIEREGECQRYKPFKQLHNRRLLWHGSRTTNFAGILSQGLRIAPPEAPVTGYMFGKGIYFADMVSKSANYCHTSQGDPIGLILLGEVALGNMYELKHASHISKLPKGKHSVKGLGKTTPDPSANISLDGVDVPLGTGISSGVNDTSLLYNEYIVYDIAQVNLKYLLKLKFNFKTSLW

IC50 [µM]	Structure (SMILES)
0.44	CCc1cc(-c2ccc(S(=O)(=O)NCc3ccccn3)s2)c(C)[nH]c1=O [Example 31, 5-(5-Ethyl-2-methyl-6-oxo-1,6-dihydropyridin-3-yl)thiophene-2-sulfonic acid (pyridin-2-yl)methylamide hydrochloride]
0.21	CCc1cc(-c2ccc(S(=O)(=O)NC(C)c3ccccn3)s2)c(C)[nH]c1=O (centres unmarked) [Example 43, 5-(5-Ethyl-2-methyl-6-oxo-1,6-dihydropyridin-3-yl)thiophene-2-sulfonic acid 1-(pyridin-2-yl)ethylamide hydrochloride]
0.67	CCc1cc(-c2ccc(S(=O)(=O)NCCc3ccccn3)s2)c(C)[nH]c1=O [Example 43A, 5-(5-Ethyl-2-methyl-6-oxo-1,6-dihydropyridin-3-yl)thiophene-2-sulfonic acid 2-(pyridin-2-yl)ethylamide]
25.5	CCc1cc(-c2ccc(S(=O)(=O)N3CCN(c4ncccn4)CC3)s2)c(C)[nH]c1=O [Example 117, 3-Ethyl-6-methyl-5-[5-(4-pyrimidin-2-yl-piperazine-1-sulfonyl)thiophen-2-yl]-1H-pyridin-2-one hydrochloride]
1.22	CCc1cc(-c2ccc(S(=O)(=O)NCc3ccccc3)s2)c(C)[nH]c1=O [Example 122A, 5-(5-Ethyl-2-methyl-6-oxo-1,6-dihydro-pyridin-3-yl)-thiophene-2-sulfonic acid benzylamide]
0.13	CCc1cc(-c2ccc(S(=O)(=O)NCc3ccc(OC)cc3)s2)c(C)[nH]c1=O [Example 122B, 5-(5-Ethyl-2-methyl-6-oxo-1,6-dihydro-pyridin-3-yl)-thiophene-2-sulfonic acid 4-methoxy-benzylamide]
0.86	CCc1cc(-c2ccc(S(=O)(=O)NCc3ccc(S(C)(=O)=O)cc3)s2)c(C)[nH]c1=O [Example 122C, 5-(5-Ethyl-2-methyl-6-oxo-1,6-dihydro-pyridin-3-yl)-thiophene-2-sulfonic acid 4-methanesulfonyl-benzylamide]

Molecular target: T1, recombinant human PARP (PARP1) (Homo sapiens, UniProt P09874)
T1 construct: Full length human PARP (PARP1) is assembled from PCR fragments; His6 tag with TEV site, from the pFastBac-HTb vector (own knowledge of the vector); made in house; host or cells: insect cells, baculovirus (Bac-to-Bac, Gibco-BRL)
Test: PARP enzyme assay, Method A (radioactivity or 'ELISA' enzyme assay with partially purified enzyme)
Type: biochemical
Conditions: recombinant human PARP preparation, radioactive or ELISA enzyme assay
Summary of the method: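 Partially purified recombinant full-length His-tagged human PARP1, baculovirus-expressed. Radioactive format: 100 μg/mL sonicated DNA, 100 μg/mL histones, 100 mM Tris pH 8.0, 10 mM MgCl2, 200 μM labeled NAD, 10 min 37 °C or 60 min RT, TCA-precipitated counts. ELISA format: 250 μM NAD plus biotin-NAD on histone plates, TMB A450.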

T1 sequence (P09874 whole entry, the tested form may be a part): as the sequence (P09874 whole entry) above

IC50 [µM]	Structure (SMILES)
0.69	CCc1cc(-c2ccc(CNCc3cccc(Cl)c3)s2)c(C)[nH]c1=O [Example 164, 5-{5-[(3-Chlorobenzylamino)methyl]thiophen-2-y}]-3-ethyl-6-methyl-1H-pyridin-2-one hydrochloride]
0.98	CCc1cc(-c2ccc(CNCc3cccc(C)c3)s2)c(C)[nH]c1=O [Example 165, 5-{5-[(3-Methylbenzylamino)methyl]thiophen-2-y}]-3-ethyl-6-methyl-1H-pyridin-2-one hydrochloride]
0.68	CCc1cc(-c2ccc(CNCc3ccc(C)cc3)s2)c(C)[nH]c1=O [Example 166, 5-{5-[(4-Methylbenzylamino)methyl]thiophen-2-y}]-3-ethyl-6-methyl-1H-pyridin-2-one hydrochloride]
0.55	CCc1cc(-c2ccc(CNCc3cccc(OC)c3)s2)c(C)[nH]c1=O [Example 167, 5-{5-[(3-Methoxybenzylamino)methyl]thiophen-2-y}]-3-ethyl-6-methyl-1H-pyridin-2-one hydrochloride]
0.4	CCc1cc(-c2ccc(CNCc3ccc(Cl)cc3)s2)c(C)[nH]c1=O [Example 168, 5-{5-[(4-chlorobenzylamino)methyl]thiophen-2-y}]-3-ethyl-6-methyl-1H-pyridin-2-one hydrochloride]
0.6	CCc1cc(-c2ccc(CNCc3ccc(OC)cc3)s2)c(C)[nH]c1=O [Example 169, 5-{5-[(4-Methoxybenzylamino)methyl]thiophen-2-y}]-3-ethyl-6-methyl-1H-pyridin-2-one hydrochloride]
0.28	CCc1cc(-c2ccc(CNCc3cccs3)s2)c(C)[nH]c1=O [Example 170, 3-Ethyl-6-methyl-5-(5-{[(thiophen-2-ylmethyl)amino]methyl}-thiophen-2-yl)-1H-pyridin-2-one hydrochloride]
0.48	CCc1cc(-c2ccc(CN3CCCC3)s2)c(C)[nH]c1=O [Example 171, 3-Ethyl-6-methyl-5-(5-pyrrolidin-1-ylmethylthiophen-2-yl)-1H-pyridin-2-one hydrochloride]
1	CCc1cc(-c2ccc(CN3CCC(F)(F)C3)s2)c(C)[nH]c1=O [Example 172, 5-{5-[(3,3-Difluoropyrrolidin-1-ylmethyl)(thiophen-2-yl)-3-ethyl-6-methyl-1H-pyridin-2-one hydrochloride]
0.22	CCc1cc(-c2ccc(CN3CCC(F)C3)s2)c(C)[nH]c1=O (centres unmarked) [Example 173, 5-{5-[(3-Fluoropyrrolidin-1-ylmethyl)(thiophen-2-yl)-3-ethyl-6-methyl-1H-pyridin-2-one hydrochloride]
1.3	CCc1cc(-c2ccc(CN3CCC(OC)C3)s2)c(C)[nH]c1=O (centres unmarked) [Example 174, 3-Ethyl-5-{5-[(3-methoxypyrrolidin-1-ylmethyl)(thiophen-2-yl)-6-methyl-1H-pyridin-2-one hydrochloride]
0.15	CCc1cc(-c2ccc(CN)s2)c(C)[nH]c1=O [Example 175, 5-(5-Aminomethylthiophen-2-yl)-3-ethyl-6-methyl-1H-pyridin-2-one hydrochloride]
0.28	CCc1cc(-c2ccc(CNC(=O)CN3CCCC3)s2)c(C)[nH]c1=O [Example 176, N-[5-(5-Ethyl-2-methyl-6-oxo-1,6-dihydropyridin-3-yl)thiophen-2-ylmethyl]-2-(pyrrolidin-1-yl)acetamide hydrochloride]
0.49	CCc1cc(-c2ccc(CNC(=O)CN(C)C)s2)c(C)[nH]c1=O [Example 177, 2-Dimethylamino-N-[5-(5-ethyl-2-methyl-6-oxo-1,6-dihydropyridin-3-yl)thiophen-2-ylmethyl]acetamide hydrochloride]
0.4	CCc1cc(-c2ccc(CNCc3cccc(C(F)(F)F)c3F)s2)c(C)[nH]c1=O [Example 178, 3-Ethyl-5-{5-[(2-fluoro-3-trifluoromethylbenzylamino)methyl](thiophen-2-yl)-6-methyl-1H-pyridin-2-one hydrochloride]
2.4	CCc1cc(-c2ccc(CN3CCC(Cc4ccccc4)CC3)s2)c(C)[nH]c1=O [Example 183, 5-[5-(4-Benzylpiperidin-1-ylmethyl)thiophen-2-yl]-3-ethyl-6-methyl-1H-pyridin-2-one hydrochloride]
2.7	CCc1cc(-c2ccc(CN3CCC(c4ccccc4)CC3)s2)c(C)[nH]c1=O [Example 184, 3-Ethyl-6-methyl-5-[5-(4-phenylpiperidin-1-ylmethyl)thiophen-2-yl]-1H-pyridin-2-one hydrochloride]
1.8	CCc1cc(-c2ccc(CN3CCC(O)(c4ccccc4)CC3)s2)c(C)[nH]c1=O [Example 185, 3-Ethyl-5-[5-(4-hydroxy-4-phenylpiperidin-1-ylmethyl)thiophen-2-yl]-6-methyl-1H-pyridin-2-one hydrochloride]
0.4	CCc1cc(-c2ccc(CNCc3ccccc3OC)s2)c(C)[nH]c1=O [Example 187, 3-Ethyl-5-{5-[(2-methoxybenzylamino)methyl]thiophen-2-yl}-6-methyl-1H-pyridin-2-one hydrochloride]
0.84	CCc1cc(-c2ccc(CNCc3ccccc3Cl)s2)c(C)[nH]c1=O [Example 188, 5-{5-[(2-Chlorobenzylamino)methyl]thiophen-2-yl}-3-ethyl-6-methyl-1H-pyridin-2-one hydrochloride]
0.41	CCc1cc(-c2ccc(CNC3CCCC3)s2)c(C)[nH]c1=O [Example 189, 5-(5-Cyclopentylaminomethylthiophen-2-yl)-3-ethyl-6-methyl-1H-pyridin-2-one hydrochloride]
0.54	CCc1cc(-c2ccc(CNC3CCCCC3)s2)c(C)[nH]c1=O [Example 190, 5-(5-Cyclohexylaminomethylthiophen-2-yl)-3-ethyl-6-methyl-1H-pyridin-2-one hydrochloride]
0.8	CCc1cc(-c2ccc(CN3CCC[C@H]3COC)s2)c(C)[nH]c1=O [Example 191, 3-Ethyl-5-{5-[(S)-2-methoxymethylpyrrolidin-1-ylmethyl]thiophen-2-yl}-6-methyl-1H-pyridin-2-one hydrochloride]
0.26	CCc1cc(-c2ccc(CNCc3ccccc3F)s2)c(C)[nH]c1=O [Example 192, 3-Ethyl-5-{5-[(2-fluoro-benzylamino)-methyl]-thiophen-2-yl}-6-methyl-1H-pyridin-2-one hydrochloride]
0.67	CCc1cc(-c2ccc(CNCc3ccccn3)s2)c(C)[nH]c1=O [Example 195, 3-Ethyl-6-methyl-5-(5-{[(pyridin-2-ylmethyl)amino]methyl}thiophen-2-yl)-1H-pyridin-2-one hydrochloride]
